Experimental data as given in ChEMBL document CHEMBL3739366, “Discovery of HTL6641, a dual orexin receptor antagonist with differentiated pharmacodynamic properties” (Medchemcomm, 2015).
Calls of active or inactive are those of the source. The calls are words filed in the database; no cut-off is given here.

Legend:
[1] = biological target: T1, Orexin/Hypocretin receptor type 1 (Homo sapiens, UniProt O43613); assay: Displacement of [3H]-4-(2,6-Difluoro-4-methoxybenzyl)-2-(5,6-dimethoxypyridin-3-yl)-2H-1,2,4-benzothiadiazin-3(4H)-one 1,1-dioxide from orexin receptor-1 (unknown origin) after 90 mins
T1 sequence (O43613 whole entry): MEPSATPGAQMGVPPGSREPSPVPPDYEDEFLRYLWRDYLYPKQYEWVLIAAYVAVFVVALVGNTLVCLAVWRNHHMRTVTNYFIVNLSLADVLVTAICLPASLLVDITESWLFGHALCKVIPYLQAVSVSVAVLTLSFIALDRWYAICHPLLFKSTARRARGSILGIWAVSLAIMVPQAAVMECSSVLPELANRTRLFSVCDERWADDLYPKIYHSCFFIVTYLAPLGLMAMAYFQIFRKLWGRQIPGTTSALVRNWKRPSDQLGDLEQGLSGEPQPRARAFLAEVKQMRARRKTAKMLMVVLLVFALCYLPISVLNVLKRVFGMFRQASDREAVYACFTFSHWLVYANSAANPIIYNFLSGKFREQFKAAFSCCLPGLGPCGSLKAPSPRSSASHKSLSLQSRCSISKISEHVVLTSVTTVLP

[2] = Half life in rat liver microsomes; assay type: ADME
[3] = Mean residence time in beagle dog; assay type: ADME, organism-based, Canis lupus familiaris; details: in vivo
[4] = Clearance in Sprague-Dawley rat at 1 mg/kg, iv; assay type: ADME, organism-based; details: in vivo
[5] = Clearance in beagle dog at 1 mg/kg, iv; assay type: ADME, organism-based, Canis lupus familiaris; details: in vivo
[6] = Volume of distribution at steady state in Sprague-Dawley rat at 1 mg/kg, iv; assay type: ADME, organism-based; details: in vivo, read-out: Vdss
[7] = Volume of distribution at steady state in beagle dog at 1 mg/kg, iv; assay type: ADME, organism-based, Canis lupus familiaris; details: in vivo, read-out: Vdss
[8] = Ratio of drug level in brain to plasma in Sprague-Dawley rat at 1 mg/kg, iv after 0.5 hrs; assay type: ADME, organism-based; details: read-out: BPR
[9] = Ratio of drug level in cerebrospinal fluid to brain in Sprague-Dawley rat at 1 mg/kg, iv after 0.5 hrs; assay type: ADME, organism-based, CSF/Brain; details: in vivo
[10] = Half life in Sprague-Dawley rat at 2 mg/kg, po; assay type: ADME, organism-based; details: in vivo
[11] = Tmax in beagle dog at 1 mg/kg, po; assay type: ADME, organism-based, Canis lupus familiaris; details: in vivo
[12] = Oral bioavailability in Sprague-Dawley rat at 2 mg/kg; assay type: ADME, organism-based; details: in vivo
[13] = Oral bioavailability in beagle dog at 1 mg/kg; assay type: ADME, organism-based, Canis lupus familiaris; details: in vivo
Cytochrome P450 1A2 = biological target: T2, Cytochrome P450 1A2 (Homo sapiens, UniProt P05177); assay: Inhibition of CYP1A2 (unknown origin); assay type: ADME
T2 sequence (P05177 whole entry): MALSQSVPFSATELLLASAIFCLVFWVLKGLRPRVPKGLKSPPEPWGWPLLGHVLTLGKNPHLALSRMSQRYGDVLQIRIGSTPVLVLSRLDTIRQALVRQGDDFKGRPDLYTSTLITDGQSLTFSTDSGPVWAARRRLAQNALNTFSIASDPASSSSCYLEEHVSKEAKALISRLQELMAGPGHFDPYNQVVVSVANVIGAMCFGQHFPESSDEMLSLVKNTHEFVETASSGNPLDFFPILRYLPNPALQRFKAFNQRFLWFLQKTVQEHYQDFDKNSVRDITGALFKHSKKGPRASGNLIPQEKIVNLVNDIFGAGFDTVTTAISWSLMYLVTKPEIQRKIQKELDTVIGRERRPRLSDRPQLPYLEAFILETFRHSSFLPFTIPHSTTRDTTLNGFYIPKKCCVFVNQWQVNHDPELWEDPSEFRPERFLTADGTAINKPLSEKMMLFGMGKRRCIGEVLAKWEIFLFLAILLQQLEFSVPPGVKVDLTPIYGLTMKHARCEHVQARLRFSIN

Cytochrome P450 2C9 = Cytochrome P450 2C9 (Homo sapiens, UniProt P11712); assay: Inhibition of CYP2C9 (unknown origin); assay type: ADME
Cytochrome P450 2C19 = Cytochrome P450 2C19 (Homo sapiens, UniProt P33261); assay: Inhibition of CYP2C19 (unknown origin); assay type: ADME
Cytochrome P450 2D6 = Cytochrome P450 2D6 (Homo sapiens, UniProt P10635); assay: Inhibition of CYP2D6 (unknown origin); assay type: ADME
Cytochrome P450 3A4 = Cytochrome P450 3A4 (Homo sapiens, UniProt P08684); assay: Inhibition of CYP3A4 (unknown origin); assay type: ADME
[14] = biological target: Voltage-gated inwardly rectifying potassium channel KCNH2 (Homo sapiens, UniProt Q12809); assay: Inhibition of human ERG
[15] = Efflux ratio of the compound in human Caco2 cells; assay type: ADME, cell-based; details: Caco-2
[16] = Plasma protein binding in dog; assay type: ADME, cell-free, Canis lupus familiaris; details: read-out: PPB (converted)
[17] = Plasma protein binding in mouse; assay type: ADME, cell-free; details: read-out: PPB (converted)
[18] = Half life in dog hepatocytes; assay type: ADME, cell-based, Canis lupus familiaris, Hepatocyte
[19] = Half life in human hepatocytes; assay type: ADME, cell-based, Hepatocyte
Salmonella typhimurium = assay: Genotoxicity in Salmonella typhimurium by Ames test in absence of S9 fraction; assay type: toxicity, organism-based; details: salmonella enterica subsp. enterica serovar typhimurium
Rattus norvegicus [20] = assay: Ex-vivo receptor occupancy of orexin receptor-2 Sprague-Dawley rat frontal cortex using [3H]EMPA at 1 mg/kg, po after 1 hr by autoradiography relative to control; assay type: functional
[21] = Plasma concentration in Sprague-Dawley rat plasma at 1 mg/kg, po after 1 hr; assay type: ADME, organism-based
Rattus norvegicus [22] = assay: Antiinsomnic activity in CD1 rat assessed as hypnotic effect at 3 to 10 mg/kg, po administered at circadian time 18 hrs measured after 2 to 3 hrs; assay type: functional, organism-based
Rattus norvegicus [23] = assay: Antiinsomnic activity in CD1 rat assessed as increase of promoted sleep at 3 to 10 mg/kg, po administered at circadian time 18 hrs measured after 3 hrs; assay type: functional
Rattus norvegicus [24] = assay: Antiinsomnic activity in CD1 rat assessed as increase of REM sleep at 10 mg/kg, po administered at circadian time 18 hrs measured after 3 hrs; assay type: functional
Rattus norvegicus [25] = assay: Antiinsomnic activity in CD1 rat assessed as increase of NREM sleep at 10 mg/kg, po administered at circadian time 18 hrs measured after 3 hrs; assay type: functional
Rattus norvegicus [26] = assay: Antiinsomnic activity in CD1 rat assessed as reduction of time taken for latency to first REM episode at 10 mg/kg, po administered at 18 hrs after circadian time; assay type: functional; parameters: scale not given: the % may be the effect or the level left
Rattus norvegicus [27] = assay: Effect on latency to first NREM episode CD1 rat assessed as reduction of at 3 and 10 mg/kg, po administered at circadian time 18 hrs; assay type: ADME, organism-based; details: in vivo
[28] = biological target: T3, Orexin/Hypocretin receptor type 1 (Homo sapiens) (UniProt O43613)
T3 sequence (whole entry): T1 sequence (O43613 whole entry)

[29] = biological target: T3, Orexin/Hypocretin receptor type 1 (Homo sapiens); details: CHO
Description: Antagonist activity at human orexin receptor-1 expressed in CHO cells assessed as orexin-A-induced ERK1/2 phosphorylation after 2 hrs by fluorescence assay

Chain of Cytochrome P450 3A4 (P08684 whole entry): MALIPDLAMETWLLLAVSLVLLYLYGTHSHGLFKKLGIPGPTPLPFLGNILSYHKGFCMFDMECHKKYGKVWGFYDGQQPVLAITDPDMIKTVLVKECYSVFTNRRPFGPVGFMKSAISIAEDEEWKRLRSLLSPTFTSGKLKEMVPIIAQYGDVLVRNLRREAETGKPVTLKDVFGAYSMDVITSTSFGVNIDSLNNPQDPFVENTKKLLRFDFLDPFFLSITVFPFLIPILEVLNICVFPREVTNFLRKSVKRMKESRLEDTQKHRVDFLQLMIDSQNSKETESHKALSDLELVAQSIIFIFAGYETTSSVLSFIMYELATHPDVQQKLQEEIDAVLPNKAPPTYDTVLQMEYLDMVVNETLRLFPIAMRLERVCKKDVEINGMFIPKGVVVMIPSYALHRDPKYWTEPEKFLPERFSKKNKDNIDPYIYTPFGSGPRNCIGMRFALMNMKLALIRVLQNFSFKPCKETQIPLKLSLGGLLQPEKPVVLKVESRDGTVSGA
Chain of Cytochrome P450 2C19 (P33261 whole entry): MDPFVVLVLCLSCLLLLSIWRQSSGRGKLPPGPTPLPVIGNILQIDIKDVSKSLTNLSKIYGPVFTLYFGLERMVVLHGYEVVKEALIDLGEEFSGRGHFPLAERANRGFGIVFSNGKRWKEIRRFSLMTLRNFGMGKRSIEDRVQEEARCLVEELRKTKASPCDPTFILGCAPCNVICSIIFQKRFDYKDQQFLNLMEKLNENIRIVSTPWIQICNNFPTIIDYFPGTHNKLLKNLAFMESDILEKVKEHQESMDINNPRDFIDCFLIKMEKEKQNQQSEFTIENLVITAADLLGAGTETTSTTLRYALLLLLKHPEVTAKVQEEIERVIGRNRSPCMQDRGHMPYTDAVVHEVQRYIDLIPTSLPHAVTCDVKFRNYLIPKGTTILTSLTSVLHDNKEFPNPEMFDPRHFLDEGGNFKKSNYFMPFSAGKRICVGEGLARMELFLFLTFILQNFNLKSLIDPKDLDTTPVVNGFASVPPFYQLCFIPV
Chain of Voltage-gated inwardly rectifying potassium channel KCNH2 (Q12809 whole entry): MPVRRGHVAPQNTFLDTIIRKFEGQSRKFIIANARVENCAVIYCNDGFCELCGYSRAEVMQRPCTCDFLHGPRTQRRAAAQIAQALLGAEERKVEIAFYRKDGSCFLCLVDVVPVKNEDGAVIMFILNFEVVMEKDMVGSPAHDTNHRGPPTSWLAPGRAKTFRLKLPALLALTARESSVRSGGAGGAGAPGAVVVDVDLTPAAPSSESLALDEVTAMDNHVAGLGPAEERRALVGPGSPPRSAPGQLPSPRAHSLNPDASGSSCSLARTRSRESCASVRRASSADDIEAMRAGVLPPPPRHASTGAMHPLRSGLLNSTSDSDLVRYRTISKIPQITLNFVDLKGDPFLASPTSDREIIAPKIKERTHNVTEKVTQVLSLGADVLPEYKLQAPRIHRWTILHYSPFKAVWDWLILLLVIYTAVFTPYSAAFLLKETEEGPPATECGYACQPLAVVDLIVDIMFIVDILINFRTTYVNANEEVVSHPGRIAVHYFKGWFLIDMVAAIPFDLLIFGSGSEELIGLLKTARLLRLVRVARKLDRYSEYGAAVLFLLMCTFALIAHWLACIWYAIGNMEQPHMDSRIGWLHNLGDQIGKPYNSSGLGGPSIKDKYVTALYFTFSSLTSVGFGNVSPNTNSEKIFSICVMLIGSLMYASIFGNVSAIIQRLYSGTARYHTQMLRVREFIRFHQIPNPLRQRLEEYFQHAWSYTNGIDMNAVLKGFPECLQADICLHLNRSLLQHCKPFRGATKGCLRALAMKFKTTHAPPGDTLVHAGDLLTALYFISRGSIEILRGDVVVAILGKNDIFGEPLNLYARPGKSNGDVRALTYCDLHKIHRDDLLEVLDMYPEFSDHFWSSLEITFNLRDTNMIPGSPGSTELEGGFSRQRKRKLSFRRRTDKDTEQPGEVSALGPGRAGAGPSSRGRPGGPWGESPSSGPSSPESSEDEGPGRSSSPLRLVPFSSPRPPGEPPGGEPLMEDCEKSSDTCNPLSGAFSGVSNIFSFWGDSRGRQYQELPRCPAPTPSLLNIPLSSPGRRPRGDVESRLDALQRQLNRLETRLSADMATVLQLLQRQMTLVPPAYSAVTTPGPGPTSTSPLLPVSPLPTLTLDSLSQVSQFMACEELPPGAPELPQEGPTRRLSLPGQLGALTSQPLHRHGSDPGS
Chain of Cytochrome P450 2D6 (P10635 whole entry): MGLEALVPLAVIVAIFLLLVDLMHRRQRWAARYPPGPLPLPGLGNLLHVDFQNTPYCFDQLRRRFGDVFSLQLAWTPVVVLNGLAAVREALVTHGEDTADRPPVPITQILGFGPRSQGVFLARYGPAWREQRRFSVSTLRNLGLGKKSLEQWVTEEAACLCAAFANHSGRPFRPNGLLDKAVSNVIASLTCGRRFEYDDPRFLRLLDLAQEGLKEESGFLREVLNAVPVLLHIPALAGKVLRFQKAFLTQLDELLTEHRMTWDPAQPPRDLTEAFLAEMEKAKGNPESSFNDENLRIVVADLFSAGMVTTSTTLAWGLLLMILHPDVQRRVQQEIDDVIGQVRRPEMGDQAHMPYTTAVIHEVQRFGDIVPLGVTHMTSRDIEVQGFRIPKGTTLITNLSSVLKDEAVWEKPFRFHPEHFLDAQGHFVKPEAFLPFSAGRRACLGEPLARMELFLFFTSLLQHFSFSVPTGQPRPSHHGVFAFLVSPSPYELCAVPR
Chain of Cytochrome P450 2C9 (P11712 whole entry): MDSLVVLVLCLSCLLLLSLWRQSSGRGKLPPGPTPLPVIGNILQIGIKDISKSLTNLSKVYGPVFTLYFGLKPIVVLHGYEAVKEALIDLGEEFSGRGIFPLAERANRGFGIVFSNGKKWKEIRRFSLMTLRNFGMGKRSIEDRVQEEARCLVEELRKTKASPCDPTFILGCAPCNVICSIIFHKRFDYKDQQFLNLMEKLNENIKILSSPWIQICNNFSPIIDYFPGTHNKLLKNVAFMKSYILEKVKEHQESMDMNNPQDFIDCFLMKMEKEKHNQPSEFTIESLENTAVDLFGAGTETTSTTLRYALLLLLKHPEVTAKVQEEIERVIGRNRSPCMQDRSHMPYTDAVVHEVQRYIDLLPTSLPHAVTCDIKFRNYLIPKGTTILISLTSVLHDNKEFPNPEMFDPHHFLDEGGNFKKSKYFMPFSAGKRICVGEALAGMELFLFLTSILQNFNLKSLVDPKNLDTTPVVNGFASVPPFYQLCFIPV

`COc1cc(N2C(=O)N(Cc3c(F)cc(F)cc3F)c3ncccc3S2(=O)=O)cnc1OC` gave a Ki [1] of 0.02 µM, a half-life [2] of 0.383 h and an MRT [3] of 4 h. It also gave a clearance [4] of 18 mL/min/kg, a clearance [5] of 13 mL/min/kg and a Vd [6] of 2.1 L/kg. The Vd [7] was 3 L/kg, the Kp at 0.5 h [8] was 0.49 and the Ratio [9] was 0.01. The half-life [10] was 1.8 h, the Tmax [11] was 0.4 h and the bioavailability [12] was 66%. The bioavailability [13] was 70%, the IC50 (Cytochrome P450 1A2) was greater than 10 µM and the IC50 (Cytochrome P450 2C9) was greater than 10 µM. It also gave an IC50 (Cytochrome P450 2C19) greater than 10 µM, an IC50 (Cytochrome P450 2D6) greater than 10 µM and an IC50 (Cytochrome P450 3A4) greater than 10 µM. The IC50 [14] was greater than 10 µM, the efflux ratio [15] was 0.7 and the fraction unbound [16] was 0.019. The fraction unbound [17] was 0.008, the half-life [18] was greater than 1.83 h and the half-life [19] was greater than 4.17 h. The Activity (Salmonella typhimurium) was “Non-toxic”, the Occ (Rattus norvegicus [20]) was 57% and the concentration at 1 h [21] was 72 ng/mL. The Activity (Rattus norvegicus [22]) was “Active”, the Activity (Rattus norvegicus [23]) was 17.4% and the Activity (Rattus norvegicus [24]) was 69.6%. The Activity (Rattus norvegicus [25]) was 30.7%, the Activity (Rattus norvegicus [26]) was 35% and the Activity (Rattus norvegicus [27]) was “Non-toxic”. For the same molecule, the T1/2 [28] was 48 s and the pKb [29] was 6.6.
